Laboratory results: US11192849B2, “Compounds, compositions, and methods for modulating ferroptosis and treating excitotoxic disorders” (THE TRUSTEES OF COLUMBIA UNIVERSITY IN THE CITY OF NEW YORK, priority 2013, dated 2021)
“Also recorded” adds a separate entry of the source.

Tests used:
[1] = system: primary pre-oligodendrocytes; assay: PVL model: cystine deprivation of developing oligodendrocytes; type: cell-based, rat; settings: 100 nM, 24 hrs, Alamar Blue
Description: Primary pre-oligodendrocytes cultures were prepared from the forebrains of P2 Sprague Dawley (Charles River Laboratory) rat pups using a differential detachment method. Forebrains free of meninges were dissociated with Hanks' Balanced Salt Solution containing 0.01% trypsin and 10 μg/ml DNase, and triturated with DMEM containing 10% heat-inactivated fetal bovine serum and 100 U/ml penicillin and 100 μg/ml streptomycin. Dissociated cells were plated onto poly-D-lysine-coated 75 cm^2 flasks and fed cells every other day for 10-17 days. On day 10 or 17, following 1 hour pre-shake at 200 rpm 37° C. to remove microglia, the flasks were shaken overnight to separate pre-oligodendrocytes from astrocyte layer. The cell suspension was passed through a 20 μm filter and plated onto uncoated (bacteriological) petri dishes for 1 hour in incubator to remove residual microglia/astrocytes. Cell suspension was plated onto poly-D,L-ornithine-coated plates with DMEM, 1×ITS (Life Technologies), 2 mM L-glutamine, 1 mM sodium pyruvate, 0.5% FBS and 0.05% gentamicin (Sigma), 10 ng/ml PDGF and 10 ng/ml FGF (Peprotech), with full medium change the next day and half medium change every other day. […] Fluorescence was assayed in each well using FluoroCount Plate Reader (Packard), with Packard Plate Reader Version 3.0, and 530 nm excitation, and 590 nm emission filters. […]

HT-1080 cells = assay: HT-1080 cell proliferation (Vi-Cell); type: cell-based, human; settings: over 48 hours
Description: Cell viability was typically assessed in 384-well format by Alamar Blue (Invitrogen) fluorescence (ex/em 530/590) measured on a Victor3 platereader (Perkin Elmer, Waltham, Mass.). In some experiments, Trypan Blue dye exclusion counting was performed using an automated cell counter (ViCell, Beckman-Coulter Inc., Brea, Calif.). Cell viability in test conditions is reported as a percentage relative to the negative control treatment.

[2] = system: mouse kidney proximal tubules; assay: Hydroxyquinoline + iron induced cell death in isolated mouse kidney proximal tubules (LDH release); type: cell-based; settings: 10 μM hydroxyquinoline and ferrous ammonium sulfate, 60 min
Description: Tubule preparation: 8-12 week old C57/BL6 female mice were euthanized with isoflurane. […] The cortices were then dissected and minced on an ice cold tile, then resuspended in additional Solution A for 8-10 min. of digestion at 37° C. followed by enrichment of proximal tubules using centrifugation on self-forming Percoll gradients as previously described for rabbit tubules.
Experimental procedures for isolated tubules: Tubules were suspended at 1.5-2.0 mg tubule protein/ml in a 95% air/5% CO2-gassed medium containing (in mM) 110 NaCl, 2.6 KCl, 25 NaHCO3, 2.4 KH2PO4, 1.25 CaCl2, 1.2 MgCl2, 1.2 MgSO4, 5 glucose, 4 sodium lactate, 0.3 alanine, 5 sodium butyrate, 2 glycine, and 1.0 mg/ml bovine gelatin (75 bloom) (Solution B). After precincubation for 15 min. at 37° C., then were then resuspended in fresh Solution B containing 2 mM heptanoic acid instead of sodium butyrate along with experimental compounds.
In addition, the efficacy of Fer-1, SRS11-92, and selected analogs was tested in a model of iron-induced cell death in freshly isolated mouse kidney proximal tubules that simulates major elements of rhabdomyolysis-induced acute kidney injury (FIG. 15C). Cell death in this model is known to involve oxidative lipid damage (Sogabe, et al., 1996, Park, et al., 2011); it was therefore believed that Fer-1 might be protective. 10 μM each of hydroxyquinoline and ferrous ammonium sulfate (HQ+Fe) were used to induce cell death, which was quantified by monitoring LDH release after 60 min. […] By implication, cell death in these models may involve, at least in part, the induction of lipid peroxidation and perhaps ferroptosis.

[3] = In vitro stability study in mouse plasma; type: in vitro ADME
Description: The assay was conducted by incubating 1 μM of test compounds with Mouse Plasma (Strain […]) for a series of incubation times (0, 15, 30, 60, 120 minutes) at various temperatures (wet ice, room temperature, or 37° C.) with 5% CO2 and shaking (130 rpm). At each time point, the samples were quenched with 200 μL of stop solution containing an internal standard and kept on ice. The samples were analysed by LC-MS/MS.

Row | Compound | protection of oligodendrocytes from cystine deprivation [1] | HT-1080 cell proliferation (HT-1080 cells) | HQ+Fe induced lethality (LDH release) [2] | mouse plasma stability [3]
1 | CCOC(=O)c1ccc(NC2CCCCC2)c(N)c1 [SRS8-28 (Fer-1), ethyl 3-amino-4-(cyclohexylamino)benzoate] | fully protected OLs from cystine deprivation | did not inhibit ERK phosphorylation or arrest the proliferation of HT-1080 cells | prevented lethality; also recorded: protective | poor plasma stability
2 | CCOC(=O)c1ccc(NC2CCCCC2)c(NCc2ccccc2)c1 [SRS11-92, ethyl 3-(benzylamino)-4-(cyclohexylamino)benzoate] | fully protected OLs from cystine deprivation |  | prevented lethality | 
